Holding throughout (assay type): in vivo
The test system of one assay is Culex pipiens pallens. Put plainly: Test Example 4: larvae in treated water, death rate of Culex pipiens pallens. The following applies: 24 h, active ingredient concentration 3.5 ppm in water, 20 last-instar larvae, after one day. How it is done: Preparations of the present compounds (1), (2), (3), (4), (5), (6), (9), (10), (11), (12), (14), (15), (16), (17), (19), (20), (22), (23), (24), (26), (27), (28), (29), (30) and (31) obtained according to Formulation Example 36 were diluted so that the active ingredient concentration was 500 ppm to obtain test solutions. To 100 mL of ion-exchanged water, 0.7 ml of the test solution was added (active ingredient concentration: 3.5 ppm). Into the solution, 20 last-instar larvae of Culex pipiens pallens were released. After one day, the number of surviving Culex pipiens pallens was examined and the death rate of the pest was calculated. As a result, in treatments with the present compounds (1), (2), (3), (4), (5), (6), (9), (10), (11), (12), (14), (15), (16), (17), (19), (20), (22), (23), (24), (26), (27), (28), (29), (30) and (31), the death rate of the pest was 90% or more.

A further assay deals with Musca domestica. Put plainly: Test Example 2: treated filter paper with sucrose bait, death rate of Musca domestica. The following applies: 500 ppm test solution, 0.7 ml on filter paper, 10 female imagoes, after 24 hours. The protocol: Preparations of the present compounds (2), (3), (5), (6), (9), (10), (11), (12), (13), (14), (15), (16), (17), (19), (20), (24), (25), (26), (28), (29), (30) and (31) obtained according to Formulation Example 36 were diluted so that the active ingredient concentration was 500 ppm to obtain test solutions.
A filter paper having a diameter of 5.5 cm was spread on the bottom of a polyethylene cup having a diameter of 5.5 cm and 0.7 ml of the test solution was added dropwise onto the filter paper. As a bait 30 mg of sucrose was uniformly placed on the filter paper. Into the polyethylene cup, 10 female imagoes of Musca domestica were released and the cup was sealed with a lid. After 24 hours, the number of surviving Musca domestica was examined and the death rate of the pest was calculated.
As a result, in treatments with the present compounds (2), (3), (5), (6), (9), (10), (11), (12), (13), (14), (15), (16), (17), (19), (20), (24), (25), (26), (28), (29), (30) and (31), the death rate of the pest was 70% or more.

In another assay the test system is Blattalla germanica. As to the kind of experiment: Test Example 3: treated filter paper with sucrose bait, death rate of Blattalla germanica. The following applies: 144 h; 500 ppm test solution, 0.7 ml on filter paper; 2 male imagoes; after 6 days. The protocol: Preparations of the present compounds (2), (3), (5), (6), (10), (11), (12), (14), (15), (16), (17), (19), (20), (24), (25), (26), (29), (30) and (31) obtained according to Formulation Example 36 were diluted so that the active ingredient concentration was 500 ppm to obtain test solutions.
A filter paper having a diameter of 5.5 cm was spread on the bottom of a polyethylene cup having a diameter of 5.5 cm and 0.7 ml of the test solution was added dropwise onto the filter paper. As a bait 30 mg of sucrose was uniformly placed on the filter paper. Into the polyethylene cup, 2 male imagoes of Blattalla germanica were released and the cup was sealed with a lid. After 6 days, the number of surviving Blattalla germanica was examined and the death rate of the pest was calculated.
As a result, in treatments with the present compounds (2), (3), (5), (6), (10), (11), (12), (14), (15), (16), (17), (19), (20), (24), (25), (26), (29), (30) and (31), the death rate of the pest was 100%.

Consider `COC(=O)C(CCC(C)C(F)(F)F)S(=O)(=O)CCC(F)(F)F` (stereo not drawn) [present compound (1), methyl 6,6,6-trifluoro-5-methyl-2-(3,3,3-trifluoropropylsulfonyl)hexanoate], for which the pest or weed control at 3.5 ppm in the assay on Culex pipiens pallens was no less than 90%.

For `COC(=O)C(Cl)(CCC(C)C(F)(F)F)S(=O)(=O)CCC(F)(F)F` (stereo not drawn) [present compound (2), methyl 2-chloro-6,6,6-trifluoro-5-methyl-2-(3,3,3-trifluoropropylsulfonyl)hexanoate], the pest or weed control at 500 ppm with Musca domestica was no less than 70%; in the assay on Blattalla germanica it was 100%. The molecule further displayed a pest or weed control at 3.5 ppm with Culex pipiens pallens of no less than 90%.

`CCC(CCC(C(=O)OC)S(=O)(=O)CCC(F)(F)F)C(F)(F)F` (stereo not drawn) [present compound (4), methyl 5-trifluoromethyl-2-(3,3,3-trifluoropropylsulfonyl)heptanoate] displayed a pest or weed control at 3.5 ppm in the assay with Culex pipiens pallens of no less than 90%.

For `CCC(CCC(Cl)(C(=O)OC)S(=O)(=O)CCC(F)(F)F)C(F)(F)F` (stereo not drawn) [present compound (5), methyl 2-chloro-5-trifluoromethyl-2-(3,3,3-trifluoropropylsulfonyl)heptanoate], the pest or weed control at 500 ppm in the assay with Musca domestica is no less than 70%; in the assay on Blattalla germanica, 100%. Also, the pest or weed control at 3.5 ppm in the assay on Culex pipiens pallens is no less than 90%.

`CCC(CCC(Cl)(C(N)=O)S(=O)(=O)CCC(F)(F)F)C(F)(F)F` (stereo not drawn) [present compound (6), 2-chloro-5-trifluoromethyl-2-(3,3,3-trifluoropropylsulfonyl)heptanamide]: the figures for the pest or weed control at 500 ppm in the assay on Musca domestica and with Blattalla germanica were no less than 70% and 100%, respectively. The pest or weed control at 3.5 ppm with Culex pipiens pallens was no less than 90%.

In the case of `CC(C)(C)C(CCC(Cl)(C(N)=O)S(=O)(=O)CCC(F)(F)F)C(F)(F)F` (stereo not drawn) [present compound (9), 2-chloro-6,6-dimethyl-5-trifluoromethyl-2-(3,3,3-trifluoropropylsulfonyl)heptanamide], the pest or weed control at 500 ppm in the assay on Musca domestica was no less than 70%. The same molecule came in with a pest or weed control at 3.5 ppm in the assay on Culex pipiens pallens of no less than 90%.

Turning to `CCC(CCC(F)(C(=O)OC)S(=O)(=O)CCC(F)(F)F)C(F)(F)F` (stereo not drawn) [present compound (11), methyl 2-fluoro-5-(trifluoromethyl)-2-(3,3,3-trifluoropropylsulfonyl)heptanoate], the pest or weed control at 500 ppm was no less than 70% in the assay with Musca domestica and 100% with Blattalla germanica. The same molecule returned a pest or weed control at 3.5 ppm with Culex pipiens pallens of no less than 90%.

Consider `CCC(CCC(F)(C(N)=O)S(=O)(=O)CCC(F)(F)F)C(F)(F)F` (stereo not drawn) [present compound (12), 2-fluoro-5-(trifluoromethyl)-2-(3,3,3-trifluoropropylsulfonyl)heptanamide], for which the pest or weed control at 500 ppm in the assay on Musca domestica was no less than 70%; in the assay on Blattalla germanica it was 100%. Besides, in the assay with Culex pipiens pallens, the pest or weed control at 3.5 ppm was no less than 90%.

Consider `CCC(CCC(C)(C(N)=O)S(=O)(=O)CCC(F)(F)F)C(F)(F)F` (stereo not drawn) [present compound (13), 2-methyl-5-(trifluoromethyl)-2-(3,3,3-trifluoropropylsulfonyl)heptanamide], for which the pest or weed control at 500 ppm in the assay with Musca domestica was no less than 70%.

As to `COC(=O)C(Cl)(CCC(C(C)C)C(F)(F)F)S(=O)(=O)CCC(F)(F)F` (stereo not drawn) [present compound (19), methyl 2-chloro-6-methyl-5-(trifluoromethyl)-2-(3,3,3-trifluoropropylsulfonyl)heptanoate], the values for the pest or weed control at 500 ppm in the assay on Musca domestica and in the assay on Blattalla germanica were no less than 70% and 100%, respectively. This molecule also displayed a pest or weed control at 3.5 ppm with Culex pipiens pallens of no less than 90%.

Turning to `CC(C)C(CCC(Cl)(C(N)=O)S(=O)(=O)CCC(F)(F)F)C(F)(F)F` (stereo not drawn) [present compound (20), 2-chloro-6-methyl-5-(trifluoromethyl)-2-(3,3,3-trifluoropropylsulfonyl)heptanamide], the pest or weed control at 500 ppm is no less than 70% in the assay with Musca domestica and 100% in the assay with Blattalla germanica. In the assay on Culex pipiens pallens, this molecule displayed a pest or weed control at 3.5 ppm of no less than 90%.

For the molecule `CCCC(CCC(Cl)(C(=O)OC)S(=O)(=O)CCC(F)(F)F)C(F)(F)F` (stereo not drawn) [present compound (22), methyl 2-chloro-5-(trifluoromethyl)-2-(3,3,3-trifluoropropylsulfonyl)octanoate], the pest or weed control at 3.5 ppm in the assay with Culex pipiens pallens was no less than 90%.

In the assay with Culex pipiens pallens, `CCCC(CCC(Cl)(C(N)=O)S(=O)(=O)CCC(F)(F)F)C(F)(F)F` (stereo not drawn) [present compound (23), 2-chloro-5-(trifluoromethyl)-2-(3,3,3-trifluoropropylsulfonyl)octanamide] returned a pest or weed control at 3.5 ppm of no less than 90%.

As to `COC(=O)C(CCC(OC)C(F)(F)F)S(=O)(=O)CCC(F)(F)F` (stereo not drawn) [present compound (24), methyl 6,6,6-trifluoro-5-methoxy-2-(3,3,3-trifluoropropylsulfonyl)hexanoate], the figures for the pest or weed control at 500 ppm in the assay on Musca domestica and in the assay with Blattalla germanica were no less than 70% and 100%, respectively. Also, the pest or weed control at 3.5 ppm in the assay on Culex pipiens pallens is no less than 90%.

For `COC(=O)C(Cl)(CCC(OC)C(F)(F)F)S(=O)(=O)CCC(F)(F)F` (stereo not drawn) [present compound (25), methyl 2-chloro-6,6,6-trifluoro-5-methoxy-2-(3,3,3-trifluoropropylsulfonyl)hexanoate], the pest or weed control at 500 ppm with Musca domestica was no less than 70%; with Blattalla germanica it was 100%.

`COC(CCC(Cl)(C(N)=O)S(=O)(=O)CCC(F)(F)F)C(F)(F)F` (stereo not drawn) [present compound (26), 2-chloro-6,6,6-trifluoro-5-methoxy-2-(3,3,3-trifluoropropylsulfonyl)hexanamide]: the pest or weed control at 500 ppm with Musca domestica was no less than 70%; with Blattalla germanica, 100%. The same molecule had a pest or weed control at 3.5 ppm in the assay with Culex pipiens pallens of no less than 90%.

Take `COC(=O)C(CCC(SC)C(F)(F)F)S(=O)(=O)CCC(F)(F)F` (stereo not drawn) [present compound (27), methyl 6,6,6-trifluoro-5-methylthio-2-(3,3,3-trifluoropropylsulfonyl)hexanoate]: in the assay on Culex pipiens pallens, the pest or weed control at 3.5 ppm was no less than 90%.

`COC(=O)C(Cl)(CCC(SC)C(F)(F)F)S(=O)(=O)CCC(F)(F)F` (stereo not drawn) [present compound (28), methyl 2-chloro-6,6,6-trifluoro-5-methylthio-2-(3,3,3-trifluoropropylsulfonyl)hexanoate] returned a pest or weed control at 500 ppm in the assay on Musca domestica of no less than 70%. In the assay on Culex pipiens pallens, this molecule came in with a pest or weed control at 3.5 ppm of no less than 90%.

For `CSC(CCC(Cl)(C(N)=O)S(=O)(=O)CCC(F)(F)F)C(F)(F)F` (stereo not drawn) [present compound (29), 2-chloro-6,6,6-trifluoro-5-methylthio-2-(3,3,3-trifluoropropylsulfonyl)hexanamide], the figures for the pest or weed control at 500 ppm in the assay with Musca domestica and in the assay with Blattalla germanica were no less than 70% and 100%, respectively. For the same molecule, the pest or weed control at 3.5 ppm in the assay with Culex pipiens pallens was no less than 90%.

As to `CSC(CCC(C#N)S(=O)(=O)CCC(F)(F)F)C(F)(F)F` (stereo not drawn) [present compound (30), 6,6,6-trifluoro-5-methylthio-2-(3,3,3-trifluoropropylsulfonyl)hexanenitrile], the pest or weed control at 500 ppm was no less than 70% in the assay with Musca domestica and 100% with Blattalla germanica. Moreover, the pest or weed control at 3.5 ppm in the assay with Culex pipiens pallens is no less than 90%.

As for `CC(CCC(Cl)(C(N)=O)S(=O)(=O)CCC(F)(F)F)C(F)(F)C(F)(F)F` (stereo not drawn) [present compound (31), 2-chloro-6,6,7,7,7-pentafluoro-5-methyl-2-(3,3,3-trifluoropropylsulfonyl)heptanamide], the pest or weed control at 500 ppm is no less than 70% in the assay with Musca domestica and 100% in the assay on Blattalla germanica. In addition, the pest or weed control at 3.5 ppm in the assay on Culex pipiens pallens is no less than 90%.

The record behind these values is patent publication US8247612B2, “Organic sulfur compound and its use for controlling harmful arthropod” (Sumitomo Chemical Company, Limited, priority 2007, dated 2012).
